In BindingDB's records for doi:10.1021/jm00390a019 (1987) one finds IC50 data, which are given here for 10 compounds.

The target of this experiment is Gastrin/cholecystokinin type B receptor (Cavia porcellus). The experiment is described as follows: Half-maximal inhibition of binding of [125I]gastrin to guinea pig gastric glands.

In general, IC50 refers to the concentration needed to halve the response being measured. Compound `CC(C)CC(N)C(=O)N1CC(CC2N=C(c3ccccc3)c3ccccc3NC2=O)c2ccccc21` (stereo not given) registered an IC50 of more than 100 µM. The compound `CN1C(=O)[C@@H](Cc2cn(C)c3ccccc23)N=C(c2ccccc2)c2ccccc21` displayed an IC50 of 67 µM.

In turn, `CC(C)C[C@H]1N=C(c2ccccc2)c2cc(Cl)ccc2NC1=O` yielded an IC50 of 38 µM. Then `CN1C(=O)[C@@H](Cc2c[nH]c3ccccc23)N=C(c2ccccc2)c2ccccc21`, with 21 µM. Turning to `O=C1Nc2ccc(Cl)cc2C(c2ccccc2)=N[C@@H]1COCc1ccccc1`, the 50% inhibitory concentration (IC50) was 13 µM. Consider `CCN1C(=O)[C@@H](Cc2c[nH]c3ccccc23)N=C(c2ccccc2F)c2ccccc21`, for which the IC50 is more than 100 µM. Turning to `CC(C)CCN1C(=O)[C@@H](Cc2c[nH]c3ccccc23)N=C(c2ccccc2F)c2ccccc21`, the IC50 stood at 23 µM.

The compound `O=C1Nc2ccccc2C1C[C@H]1N=C(c2ccccc2)c2cc(Cl)ccc2NC1=O` (stereo not given in full) returned an IC50 of more than 100 µM. `O=C(O)CCN1C(=O)[C@@H](Cc2c[nH]c3ccccc23)N=C(c2ccccc2F)c2ccccc21` gave an IC50 of 5.8 µM. On to `O=C(O)CN1C(=O)[C@@H](Cc2c[nH]c3ccccc23)N=C(c2ccccc2F)c2ccccc21` [CCK antagonist synthetic 13], for which the IC50 came to 5 µM.
